Where a name gives a salt, the structure may show the parent alone.

The text below walks through data of patent US7153855B2, “Pyrazolopyridinyl pyrimidine therapeutic compounds” (SmithKline Beecham Corporation, priority 2001, dated 2006).

The first test has as its system HSV-1. Kind of test: HSV-1 infection of Vero 76 cells, viral DNA detected by hybridization capture (chemiluminescence). It counts as cell-based. As to conditions: Human alphaherpesvirus 1, Vero 76. In short, it runs like this:
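Vero 76 cells infected 45 min at 37° C with HSV-1 (MOI=0.001), seeded at 5×10^4 cells/well in 2% FBS medium with compounds, incubated 40–48 h, then lysed in 0.2 N NaOH/1% detergent. Viral DNA captured by UL13 plasmid, hybridized overnight at 42° C with digoxigenin-labeled UL15 probe, detected by anti-digoxigenin-HRP chemiluminescence.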
For `CCOP(=O)(NCCCCNc1cccc2c(-c3ccnc(NC4CCCC4)n3)c(-c3ccc(OC)cc3)nn12)OCC` [Example 89, Diethyl 4-{[3-[2-(cyclopentylamino)pyrimidin-4-yl]-2-(4-methoxyphenyl)pyrazolo[1,5-a]pyridin-7-yl]amino}butylamidophosphate], 800 nM corresponded to half-maximal inhibition (IC50).

The same test, now with this note: Human alphaherpesvirus 1; HSV-1 in Vero 76 cells, MOI=0.001, compounds incubated 40–48 hours at 37° C.; read-out: IC50.
With `COC(=O)CNc1cccc2c(-c3ccnc(NC4CCCC4)n3)c(-c3ccc(OC)cc3)nn12` [Example 79, Methyl N-[3-[2-(cyclopentylamino)pyrimidin-4-yl]-2-(4-methoxyphenyl)pyrazolo[1,5-a]pyridin-7-yl]glycinate], the IC50 came out at 2500 nM. Regarding `COc1ccc(-c2nn3c(NCCCCN)cccc3c2-c2ccnc(NC3CCCC3)n2)cc1` [Example 81, N-[3-[2-(Cyclopentylamino)pyrimidin-4-yl]-2-(4-methoxyphenyl)-pyrazolo[1,5-a]pyridin-7-yl]butane-1,4-diamine], the IC50 was 600 nM.

For the compound `COc1ccc(-c2nn3c(NCCCCNC(=O)CCCC[C@@H]4SC[C@@H]5NC(=O)N[C@@H]54)cccc3c2-c2ccnc(NC3CCCC3)n2)cc1` [Example 82, 5-[(3aS,4S,6aR)-2-Oxohexahydro-1H-thieno[3,4-d]imidazol-4-yl]-N-(4-{[3-[2-(cyclopentylamino)pyrimidin-4-yl]-2-(4-methoxyphenyl)pyrazolo[1,5-a]pyridin-7-yl]amino}butyl)pentanamide], the IC50 was 400 nM. Turning to `COc1ccc(-c2nn3c(N)cccc3c2-c2ccnc(NC3CCCC3)n2)cc1` [Example 83, 3-[2-(Cyclopentylamino)pyrimidin-4-yl]-2-(4-methoxyphenyl)pyrazolo-[1,5-a]pyridin-7-amine], the IC50 was 700 nM.

Regarding `COc1ccc(-c2nn3c(NCCCCNC(=N)N)cccc3c2-c2ccnc(NC3CCCC3)n2)cc1` [Example 85, N-(4-{[3-[2-(Cyclopentylamino)pyrimidin-4-yl]-2-(4-methoxyphenyl)pyrazolo[1,5-a]pyridin-7-yl]amino}butyl)guanidine], the half-inhibitory concentration (IC50) stood at 4000 nM. On the same count and under the same terms, as for `COc1ccc(-c2nn3c(NCCCCNS(C)(=O)=O)cccc3c2-c2ccnc(NC3CCCC3)n2)cc1` [Example 86, N-(4-{[3-[2-(Cyclopentylamino)pyrimidin-4-yl]-2-(4-methoxyphenyl)pyrazolo[1,5-a]pyridin-7-yl]amino}butyl)methanesulfonamide], the figure is 600 nM. On to `COc1ccc(-c2nn3c(NCCCCNC(=O)NS(=O)(=O)c4ccc(C)cc4)cccc3c2-c2ccnc(NC3CCCC3)n2)cc1` [Example 87, N-{[(4-{[3-[2-(Cyclopentylamino)pyrimidin-4-yl]-2-(4-methoxyphenyl)pyrazolo[1,5-a]pyridin-7-yl]amino}butyl)amino]carbonyl}-4-methylbenzenesulfonamide], for which the IC50 came out at 1000 nM.

Turning to `COc1ccc(-c2nn3c(NCCCCNC(=O)CCC(=O)O)cccc3c2-c2ccnc(NC3CCCC3)n2)cc1` [Example 88, 4-[(4-{[3-[2-(Cyclopentylamino)pyrimidin-4-yl]-2-(4-methoxyphenyl)pyrazolo[1,5-a]pyridin-7-yl]amino}butyl)amino]-4-oxobutanoic acid], the IC50 is 9000 nM. On to `COc1ccc(-c2nn3c(NCCCCO)cccc3c2-c2ccnc(NC3CCCC3)n2)cc1` [Example 90, 4-{[3-[2-(Cyclopentylamino)pyrimidin-4-yl]-2-(4-methoxyphenyl)-pyrazolo[1,5-a]pyridin-7-yl]amino}butan-1-ol], for which the IC50 was 200 nM. In the case of `COc1ccc(-c2nn3c(NCCCCOP(=O)(O)O)cccc3c2-c2ccnc(NC3CCCC3)n2)cc1` [Example 92, 4-{[3-[2-(Cyclopentylamino)pyrimidin-4-yl]-2-(4-methoxy-phenyl)pyrazolo[1,5-a]pyridin-7-yl]amino}butyl phosphate diammonium salt], the IC50 was 300 nM. Regarding `[N-]=[N+]=Nc1cccc(-c2nn3c(NC4CCCC4)cccc3c2-c2ccnc(NC3CCCC3)n2)c1` [Example 93, 2-(3-Azidophenyl)-N-cyclopentyl-3-[2-(cyclopentylamino)pyrimidin-4-yl]pyrazolo[1,5-a]pyridin-7-amine], the IC50 was 700 nM.

`COc1ccc(-c2nn3c(NCC(=O)N4CCCC4)cccc3c2-c2ccnc(NC3CCCC3)n2)cc1` [Example 94, 3-[2-(Cyclopentylamino)-4-pyrimidinyl]-2-(4-methoxyphenyl)-N-[2-oxo-2-(1-pyrrolidinyl)ethyl]pyrazolo[1,5-a]pyridin-7-amine]: the half-maximal inhibitory concentration (IC50) was found to be 6200 nM. Regarding `COc1ccc(-c2nn3c(NCCNS(C)(=O)=O)cccc3c2-c2ccnc(NC3CCCC3)n2)cc1` [Example 95, N-(2-{[3-[2-(Cyclopentylamino)-4-pyrimidinyl]-2-(4-methoxy-phenyl)pyrazolo[1,5-a]pyridin-7-yl]amino}ethyl)methanesulfonamide], the IC50 stood at 300 nM.

As for `COc1ccc(-c2nn3c(NCCN)cccc3c2-c2ccnc(NC3CCCC3)n2)cc1` [Example 96, N′-[3-[2-(Cyclopentylamino)-4-pyrimidinyl]-2-(4-methoxyphenyl)pyrazolo[1,5-a]pyridin-7-yl]-1,2-ethanediamine], the IC50 came to 1100 nM. On the same count and under the same terms, to `Fc1cccc(-c2nn3c(N4CCOCC4)cccc3c2-c2ccnc(NC3CCCC3)n2)c1` [Example 97, N-Cyclopentyl-4-[2-(3-fluorophenyl)-7-(4-morpholinyl)pyrazolo[1,5-a]pyridin-3-yl]-2-pyrimidinamine] belongs 700 nM. `FC(F)(F)c1cccc(-c2nn3c(NC4CCCC4)cccc3c2-c2ccnc(NC3CCCC3)n2)c1` [Example 98, N-Cyclopentyl-3-[2-(cyclopentylamino)-4-pyrimidinyl]-2-[3-(trifluoromethyl)phenyl]pyrazolo[1,5-a]pyridin-7-amine]: the IC50 amounted to 300 nM. On to `Clc1cccc(-c2nn3c(NC4CC4)cccc3c2-c2ccnc(NC3CC3)n2)c1` [Example 99, 2-(3-Chlorophenyl)-N-cyclopropyl-3-[2-(cyclopropylamino)-4-pyrimidinyl]pyrazolo[1,5-a]pyridin-7-amine], for which the IC50 was found to be 500 nM. For `Clc1cccc(-c2nn3c(NC4CCCC4)cccc3c2-c2ccnc(NC3CC3)n2)c1` [Example 100, 2-(3-Chlorophenyl)-N-cyclopentyl-3-[2-(cyclopropylamino)-4-pyrimidinyl]pyrazolo[1,5-a]pyridin-7-amine], the IC50 worked out at 300 nM. In the case of `Clc1cccc(-c2nn3c(NC4CC4)cccc3c2-c2ccnc(NC3CCCC3)n2)c1` [Example 101, 2-(3-Chlorophenyl)-3-[2-(cyclopentylamino)-4-pyrimidinyl]-N-cyclopropylpyrazolo[1,5-a]pyridin-7-amine], the IC50 stood at 200 nM. For `Fc1cccc(-c2nn3c(NC4CCCC4)cccc3c2-c2ccnc(NC3CC3)n2)c1` [Example 102, N-Cyclopentyl-3-[2-(cyclopropylamino)-4-pyrimidinyl]-2-(3-fluorophenyl)pyrazolo[1,5-a]pyridin-7-amine], the IC50 came to 700 nM.

In the case of `Clc1cccc(-c2nn3c(N4CCOCC4)cccc3c2-c2ccnc(NC3CCCC3)n2)c1` [Example 103, 4-[2-(3-Chlorophenyl)-7-(4-morpholinyl)pyrazolo[1,5-a]pyridin-3-yl]-N-cyclopentyl-2-pyrimidinamine], the IC50 was found to be 500 nM. In the case of `COCCNc1cccc2c(-c3ccnc(NC4CCCC4)n3)c(-c3cccc(Cl)c3)nn12` [Example 104, 2-(3-Chlorophenyl)-3-[2-(cyclopentylamino)-4-pyrimidinyl]-N-(2-methoxyethyl)pyrazolo[1,5-a]pyridin-7-amine], the IC50 was 200 nM. Take `Fc1cccc(-c2nn3c(NC4CC4)cccc3c2-c2ccnc(NC3CCCC3)n2)c1` [Example 105, 3-[2-(Cyclopentylamino)-4-pyrimidinyl]-N-cyclopropyl-2-(3-fluorophenyl)pyrazolo[1,5-a]pyridin-7-amine]: the IC50 turned out to be 600 nM. Same read-out and setting: as for `COCCNc1cccc2c(-c3ccnc(NC4CCCC4)n3)c(-c3cccc(F)c3)nn12` [Example 106, 3-[2-(Cyclopentylamino)-4-pyrimidinyl]-2-(3-fluorophenyl)-N-(2-methoxyethyl)pyrazolo[1,5-a]pyridin-7-amine], the figure is 200 nM.

For orientation: IC50 means the point on the concentration scale where inhibition reaches its midpoint.
